The text below walks through data of patent publication US20110064669A1, “USE OF GALANIN IN A METHOD OF TREATING NEURODEGENERATIVE DISEASES OR CONDITIONS” (HOWARD FLOREY INSTITUTE OF EXPERIMENTAL PHYSIOLOGY AND …, priority 2007, published 2011).

“Also recorded” adds a separate entry of the source. No end group written: not given here.

In assay [1] the test system is cultured primary oligodendrocytes. Kind of assay: Affymetrix gene chip analysis of LIF-induced mRNA in cultured primary oligodendrocytes. The class given is cell-based, rat. As to conditions: 8 hours of LIF exposure, versus NT3, insulin or Sato only. How it is done: In order to assess mRNA induction promoted by LIF signaling in oligodendrocytes, an Affymetrix array analysis was conducted of cultured primary oligodendrocytes. A2B5 positive, O1 negative oligodendrocyte progenitor cells were isolated by sequential immunopanning from P6 rat optic nerves. After expansion in culture (2 passages, 11 days) in Sato medium in the presence of insulin, platelet-derived growth factor (PDGF) and neurotrophin-3 (NT3) (no CNTF or LIF), the cells were matured by 48 hours of PDGF withdrawal. The NT3 was also withdrawn for this time-period but insulin was maintained. In order to determine gene expression profiles induced by various cytokines, the matured cells were then exposed to one of four conditions for 8 hours: Sato alone, Sato plus insulin, Sato plus LIF, Sato plus NT3. Subsequently, the cells were harvested, mRNA isolated and processed for Affymetrix gene chip hybridization (Rat 230 2.0). The experiments were conducted as independent triplicates. […] The 965 genes identified were subjected to cluster analysis. Distinct clusters of genes were regulated by insulin and LIF (FIG. 9) but not NT-3.

Assay [2] concerns oligodendrocyte progenitors or mature oligodendrocytes. Kind of assay: Real-time PCR confirmation of LIF-regulated genes in oligodendrocyte progenitors and mature oligodendrocytes. The class given is cell-based, rat. The conditions noted are these: LIF for 5 or 24 hours. How it is done: For each of these six regulated genes, independent confirmation was conducted by real-time PCR. Either dividing oligodendrocyte progenitors or mature oligodendrocytes (as above) were exposed to LIF for either 5 or 24 hours, and measured gene induction against baseline (independent baseline cultures for each comparison). […] FIG. 10 illustrates typical results for secretogranin 2 and galanin.
Background: In qPCR the cycle at which signal appears reflects the starting amount.

In another assay the test system is mature oligodendrocytes. Kind of assay: Western blot of galanin in concentrated media of mature oligodendrocytes. The conditions noted are these: LIF 100 ng/ml, 48 hours, SATO plus insulin. It is filed as cell-based, rat. Here is the method: (§1) Translation of regulated cytokine and neuropeptide mRNA species into peptides/proteins was confirmed. Mature oligodendrocytes (as above) were plated in 10 cm dishes in SATO plus insulin and added LIF (100 ng/ml) to half the dishes for 48 hours. […] LIF-dependent galanin production in concentrated media from the OC cell line CG4 (FIG. 11) was confirmed. […] All Western blots were performed in triplicate from independent experiments. The LIF-dependent induction of a secretory phenotype in OC was confirmed by galanin immunocytochemistry of OC cultured in insulin +/− LIF for 48 hours (FIG. 13).

For assay [3], the system named is cultured primary rat astrocytes or an n-mye immortalized astrocytic cell line. Kind of assay: Galanin production in response to LIF in astrocytes. It is filed as cell-based.
The subject of another assay is OC. The assay is described as follows: Galanin immunocytochemistry of OC cultured in insulin +/- LIF. The class given is cell-based, rat. As to conditions: LIF-treated versus untreated OC, 48 hours. How it is done: as §1
The test system of the next assay is EAE. The conditions noted are these: cited from earlier work.
For the next assay, the system named is cuprizone demyelination. The conditions noted are these: exogenous LIF, wild-type litter mates; cited from earlier work.
Assay [4] concerns post-mitotic OC (primary rat OPC matured by PDGF withdrawal). Kind of assay: Oligodendrocyte survival assay (calcein / ethidium homodimer live-dead count). The class given is cell-based. How it is done: Whether or not galanin itself is a survival factor for oligodendrocytes in vitro was determined. Primary rat OPC in culture were matured for 48 hours by PDGF withdrawal in the presence of insulin, passaged into poly-1-lysine coated 24 well-plates at a density of 200 cells/well in Sato medium alone or Sato medium supplemented with various concentrations of recombinant rat galanin (Peninsula Biosciences).
Twenty wells/condition were counted in each survival assay and results were verified in four independent experiments using separate batches of primary cells. All counts were performed by an investigator blinded to the experimental condition.

Consider leukemia inhibitory factor [LIF], for which, in assay [1], the “regulation of genes (secretogranin II, cytokines/neuropeptides incl. galanin) on gene chip” value was “significantly regulated”. For the same substance, the “gene induction against baseline at the RNA level (six genes incl. secretogranin 2 and galanin)” value in assay [2] is listed as “confirmed to be regulated”. In the assay on mature oligodendrocytes, the “galanin production in concentrated media” value is “Induction of galanin production was observed”. For the same substance, the “induction of galanin production” value in assay [3] is reported as “not observed”. Also, the “galanin staining of OC” value with OC was “intense polar galanin staining”. Moreover, the “reduction in density of oligodendrocytes within the spinal cord in established EAE” value in the assay on EAE (MBP-lacZ mice, LIF administration) is “fully rescued this phenotype”. Also, the EAE severity result with EAE (recombinant LIF administration) is given as “reduces EAE severity”. Further, the severity of demyelination entry with cuprizone demyelination is listed as “reduce the severity of demyelination”.
Turning to “galanin (GWTLNSAGYLLGPHAIDNHRSFSDKHGLT; ends and bridges not checked; UniProt P10683 33-61, looked up) [29 amino acid neuropeptide; recombinant rat galanin (Peninsula Biosciences) used in the survival assay]”, the “OC survival in vitro” value in assay [4] (1 nM galanin in Sato medium, versus Sato alone (nil)) was “highly significant survival effect; also recorded: increased”; in assay [4] (higher galanin concentrations (other than 1 nM), versus baseline (nil)), “abolished; also recorded: No other galanin concentration is significantly different from baseline”. Besides, in assay [4] (Sato medium), the “OC survival, galanin plus LIF versus galanin alone (synergy)” value is listed as “not synergistic with LIF”.
